Measured values taken from patent US6753348B2, “BTK inhibitors and methods for their identification and use” (Parker Hughes Institute, priority 1998, dated 2004).

Columns and labels:
BTK = BTK (Mus musculus, UniProt P35991); experiment: BTK inhibition assay of benzopyran derivatives; format: biochemical; settings: for IC50: BTK inhibitory activity; for BTK inhibitory activity in words: kinase assays
RBL-2H3 rat mast cells = experiment: IgE/FcεRI receptor mediated leukotriene C4 release, RBL-2H3 mast cells; format: cell-based; settings: RBL-2H3, IgE/DNP-BSA challenge, 30 min pre-incubation, 1-100 μM, N = 3-4, read-out: EC50 (mean ± SEM), inhibition of leukotriene C4 release
Protocol: Mast Cell Cultures. RBL-2H3 mast cells were a gift from Dr. Reuben P. Siraganian (Laboratory of Microbiology and Immunology, National Institute of Dental Research, National Institute of Health). The cells were maintained as monolayer cultures in 75- or 150-cm^2 flask in Eagle's essential medium supplemented with 20% fetal calf serum. Human fetal livers (16 to 21 weeks of gestational age) were obtained from prostaglandin-induced human abortuses. Subsequently, single cell suspensions were prepared and mononuclear cells were isolated by centrifugation on Ficoll-Hypaque gradients as described (Malaviya, R., et al., (1999) J Biol Chem, 274, 27028-27038). Isolated cells were cultured for 8 weeks in the presence of 100 ng/ml rhSCF, 2 ng/ml rhIL-4 (Malaviya, R., et al., (1999) J Biol Chem, 274, 27028-27038; Xia, H. Z., et al., (1997) J Immunol, 159, 2911-2921). Culture medium was replaced with fresh medium once a week for the first 2 weeks and twice a week thereafter. All human tissue specimens were used following the guidelines of the Parker Hughes Institute Institutional Review Board on the Use of Human Subjects in Research for secondary use of pathologic or surgical tissue. At the end of the 8 weeks the fetal liver derived human mast cell culture contained 70-90 percent mast cells, based on toluidine blue and tryptase staining (Xia, H. Z., et al., (1997) J Immunol, 159, 2911-2921).
Stimulation of Mast Cells. RBL-2H3 rat mast were sensitized with monoclonal anti-DNP IgE antibody (0.24 mg/ml) for 1 h at 37° C. in a 48-well tissue culture plate. Unbound IgE was removed by washing the cells with PIPES-buffered saline. After washing, PIPES-buffered saline containing 1 mM calcium chloride was added to the monolayers of the RBL-2H3 cells. The cells were challenged with 20 ng/ml DNP-BSA for 30 min at 37° C. The plate was centrifuged at 200 g for 10 min at 4° C. Supernatants were removed and saved. Fetal liver-derived human mast cells were resuspended in culture medium at a cell density of 5×10^6/ml and sensitized with human IgE (150 μg/ml) for 3 h at 4° C. After sensitization the cells were washed with tyrode buffer containing 1 mM calcium and 1 mM magnesium and challenged with mouse monoclonal anti-human IgE (40 μg/ml) for 30 min at 37° C. To study the effect of test drugs, RBL-2H3 rat mast cells or human mast cells were incubated with the drugs at the indicated concentrations or vehicle for 30 min prior to antigen challenge.
Mediator Release Assay. Leukotriene C4 levels were estimated in cell free supernatants of mast cells by immunoassay (Malaviya, R. and Abraham, S. N., (1995) Methods Enzymol, 253, 27-43).
Mast cells release large amounts of leukotrienes upon IgE receptor ligation. Because of the reported ability of LFM as a mast cell inhibitor, we utilized 13 analogues of LFM (Table 1) and examined their effect on IgE/FcεERI receptor mediated mast cell leukotriene C4 release. RBL-2H3 cells, a mucosal mast cell line, were treated with 5 different concentrations of the compounds ranging from 1 μM to 100 μM or vehicle for 30 min before challenge with antigen (DNP-BSA) at 37° C. Leukotriene C4 release was quantitated in the extracellular medium employing a previously described ELISA (Malaviya, R. and Abraham, S. N., (1995) Methods Enzymol, 253, 27-43).

human leukemia cells = experiment: Ceramide or vincristine sensitivity of human leukemia cells; format: cell-based; settings: co-administration with chemotherapeutic agent
From the text: FIG. 23: Effects of DDE-11 on ceramide or vincristine—sensitivity of human leukemia cells. Studies were done as described above for FIG. 17, but using DDE 11 as the BTK inhibitor.

NALM-6 cells = experiment: Apoptosis induction, TUNNEL and flow cytometric assay; format: cell-based, human; settings: compound alone, 100 μM

Sequence of BTK (P35991 whole entry): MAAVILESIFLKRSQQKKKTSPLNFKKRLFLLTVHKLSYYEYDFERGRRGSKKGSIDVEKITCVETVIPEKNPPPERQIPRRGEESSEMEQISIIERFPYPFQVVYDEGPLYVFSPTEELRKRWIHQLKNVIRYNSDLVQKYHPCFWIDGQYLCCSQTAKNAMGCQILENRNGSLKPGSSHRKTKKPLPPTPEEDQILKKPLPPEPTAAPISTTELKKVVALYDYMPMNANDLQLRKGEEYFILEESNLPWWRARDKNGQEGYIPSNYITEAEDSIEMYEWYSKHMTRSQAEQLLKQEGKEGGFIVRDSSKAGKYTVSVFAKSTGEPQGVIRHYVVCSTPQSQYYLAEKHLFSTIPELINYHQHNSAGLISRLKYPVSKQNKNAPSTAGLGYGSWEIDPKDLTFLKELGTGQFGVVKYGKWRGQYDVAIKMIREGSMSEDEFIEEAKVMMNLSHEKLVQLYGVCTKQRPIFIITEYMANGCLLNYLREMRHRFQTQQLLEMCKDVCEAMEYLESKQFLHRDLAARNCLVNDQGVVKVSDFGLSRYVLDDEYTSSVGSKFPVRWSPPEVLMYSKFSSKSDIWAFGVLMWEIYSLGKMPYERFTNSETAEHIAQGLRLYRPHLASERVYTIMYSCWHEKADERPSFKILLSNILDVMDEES

Row | Compound | IC50 (BTK) | EC50 (RBL-2H3 rat mast cells) | melting point | other results
1 | CCCc1cc(=O)oc2cc(O)cc(O)c12 [DDE181, 5,7-Dihydroxy-4 propyl-2H-1-benzopyran-2-one] | < 45.4 µM | – | – | BTK inhibitory activity in words (BTK): potent BTK inhibitors
2 | CC(O)=C(C#N)C(=O)Nc1ccc(OC(F)(F)F)cc1 [LFM-A12, α-Cyano-β-hydroxy-β-methyl-N-[4-(trifluoromethoxy)phenyl]-propenamide] | – | 30 ± 5.6 µM | 182 to 183 °C | –
3 | CC(O)=C(C#N)C(=O)Nc1ccccc1Cl [LFM-A6, α-Cyano-β-hydroxy-β-methyl-N-(2-chlorophenyl)propenamide] | – | > 100 µM | 93 to 94 °C | –
4 | CC(O)=C(C#N)C(=O)Nc1cccc(F)c1 [LFM-A11, α-Cyano-β-hydroxy-β-methyl-N-(3-fluorophenyl)propenamide] | – | > 100 µM | 136 to 138 °C | –
5 | C/C(O)=C(\C#N)C(=O)Nc1ccc(Cl)cc1Cl [LFM-A20, α-Cyano-β-hydroxy-β-methyl-N-(2,4-dichlorophenyl)-propenamide] | – | – | 143 to 144 °C | –
6 | C/C(O)=C(\C#N)C(=O)Nc1cc(Cl)ccc1Cl [LFM-A18, α-Cyano-β-hydroxy-β-methyl-N-(2,5-dichlorophenyl)-propenamide] | – | – | 143 to 144 °C | –
7 | CC(O)=C(C#N)C(=O)Nc1ccccc1Br [LFM-A5, α-Cyano-β-hydroxy-β-methyl-N-(2-bromophenyl)propenamide] | – | 46 ± 10 µM | 98 to 100 °C | –
8 | C/C(O)=C(\C#N)C(=O)Nc1ccc(OC(F)(F)F)c(Br)c1 [LFM-A17, α-Cyano-β-hydroxy-β-methyl-N-[3-bromo-4-(trifluoromethoxy)-phenyl]propenamide] | – | – | 178 to 179 °C | –
9 | CC(O)=C(C#N)C(=O)Nc1ccc(F)cc1 [LFM-A3, α-Cyano-β-hydroxy-β-methyl-N-(4-fluorophenyl)propenamide] | – | > 100 µM | 165 to 166 °C | –
10 | CC(O)=C(C#N)C(=O)Nc1cccc(Br)c1 [LFM-A9, α-Cyano-β-hydroxy-β-methyl-N-(3-bromophenyl)propenamide] | – | > 100 µM | 184 to 185 °C | –
11 | C/C(O)=C(\C#N)C(=O)Nc1ccc(S(C)(=O)=O)cc1 [LFM-A15, α-Cyano-β-hydroxy-β-methyl-N-[4-(methylsulfonyl)phenyl]-propenamide] | – | – | 205 to 206 °C | –
12 | C/C(O)=C(\C#N)C(=O)Nc1cccc(S(C)(=O)=O)c1 [LFM-A16] | – | – | 213 to 214 °C | –
13 | CC(O)=C(C#N)C(=O)Nc1ccc(C(F)(F)F)cc1 [LFM, α-Cyano-β-hydroxy-β-methyl-N-[4-(trifluoromethyl)phenyl]-propenamide, reference compound] | – | 34 ± 14.5 µM | – | –
14 | CC(O)=C(C#N)C(=O)Nc1ccc(Cl)cc1 [LFM-A2, α-Cyano-β-hydroxy-β-methyl-N-(4-chlorophenyl)propenamide] | – | 58 ± 13 µM | 209 to 211 °C | –
15 | C/C(O)=C(\C#N)C(=O)Nc1ccc(Br)cc1Br [LFM-A19, α-Cyano-β-hydroxy-β-methyl-N-(2,4-dibromophenyl)-propenamide] | – | – | 181 °C | –
16 | CC(O)=C(C#N)C(=O)Nc1ccccc1 [LFM-A14, α-Cyano-β-hydroxy-β-methyl-N-(phenyl)propenamide] | – | > 100 µM | 134 to 135 °C | –
17 | CC(O)=C(C#N)C(=O)Nc1ccccc1C(F)(F)F [LFM-A4, α-Cyano-β-hydroxy-β-methyl-N-[2-(trifluoromethyl)phenyl]-propenamide] | – | > 100 µM | 61 to 63 °C | –
18 | CC(O)=C(C#N)C(=O)Nc1ccccc1F [LFM-A7, α-Cyano-β-hydroxy-β-methyl-N-(2-fluorophenyl)propenamide] | – | > 100 µM | 118 to 119 °C | –
19 | CC(O)=C(C#N)C(=O)Nc1cccc(Cl)c1 [LFM-A10, α-Cyano-β-hydroxy-β-methyl-N-(3-chlorophenyl)propenamide] | – | 51 ± 12 µM | 184 to 187 °C | –
20 | CC(O)=C(C#N)C(=O)Nc1ccc(Br)cc1 [LFM-A1, α-Cyano-β-hydroxy-β-methyl-N-(4-bromophenyl)propenamide] | – | 64 ± 13.9 µM | 213 to 214 °C | –

Continued, in another order:

Row | IC50 (BTK) | EC50 (RBL-2H3 rat mast cells) | melting point | Compound | other results
21 | > 344 µM | – | – | CCCc1cc(=O)oc2c(C(=O)C(C)C)c(O)cc(O)c12 [DDE272] | –
22 | < 36.2 µM | – | – | CCCc1cc(=O)oc2c(C(=O)CC)c(O)cc(O)c12 [DDE11, 5,7-Dihydroxy-8-propanoyl-4-propyl-2H-1-benzopyran-2-one] | cytotoxicity of C2-CER and vincristine on co-administration (human leukemia cells): increaseed the cytotoxicity; BTK inhibitory activity in words (BTK): potent BTK inhibitors; apoptosis induction (NALM-6 cells): induces apoptosis
23 | < 40.3 µM | – | – | CCCc1cc(=O)oc2c(C=O)c(O)cc(O)c12 [DDE213, 5,7-Dihydroxy-8-carboxaldehyde-4-propyl-2H-1-benzopyran-2-one] | BTK inhibitory activity in words (BTK): potent BTK inhibitors
24 | > 329 µM | – | – | CCCc1cc(=O)oc2c(C(=O)CC)c(OC)cc(OC)c12 [DDE229] | –
25 | > 308 µM | – | – | CCCc1cc(=O)oc2c(C(=O)c3ccccc3)c(O)cc(O)c12 [DDE355] | –
26 | 98.3 µM | – | – | O=c1cc(-c2ccccc2)c2c(O)cc(O)cc2o1 [DDE270, 5,7-Dihydroxy-4-phenyl-2H-1-benzopyran-2-one] | –
27 | > 381 µM | – | – | CCCc1cc(=O)oc2c(C(C)=O)c(O)cc(O)c12 [DDE271, 5,7-Dihydroxy-8-acetyl-4-propyl-2H-1-benzopyran-2-one] | –
28 | < 48.5 µM | – | – | CCc1cc(=O)oc2cc(O)cc(O)c12 [DDE214, 5,7-Dihydroxy-4-ethyl-2H-1-benzopyran-2-one] | BTK inhibitory activity in words (BTK): potent BTK inhibitors
